Read-outs that look alike come from different tables or passages of the source.
Experiments:
[1] = test system: Klebsiella pneumoniae expressing VIM-1 (IHMA599644); experiment: Antibiotic potentiation activity: synergistic concentration (MITC95) with imipenem, OD600 growth; type: cell-based
Procedure: (§1) Antibiotic Potentiation Activity: Determination of Synergistic Concentration
(§2) The bacterial strains tested included the clinical strains Escherichia coli expressing NDM-1 (CLB30005, CLB30016), Serratia marcescens expressing IMP-1 (CL5741), and Klebsiella pneumoniae expressing VIM-1 (IHMA599644) Inhibitor activity was measured in the presence and absence of imipenem in a 384-well microplate.
(§3) The clinical strains CLB30016, CL5741 and IHMA599644 were grown on trypticase soy agar containing 5% sheep's blood. The clinical strain CLB30005 was grown on Mueller Hinton broth agar containing 8 ug/ml imipenem. The bacteria on agar plates were incubated at 35° C. with humidity overnight. The following day, individual colonies from each clinical strain were picked and resuspended in 5 ml saline to attain an OD600 of 0.14, 0.11, 0.15 and 0.13, for CLB30005, CLB30016, CL5741 and IHMA599644, respectively. These were further diluted 1:100 into 1.1×CAMHB and used to inoculate the test wells as described below.
(§4) Imipenem in 10 mM 3-(N-morpholino)propanesulfonic acid (MOPS, pH 7) was stored in single use aliquots at −80° C. […] On the day of the assay, 4 μl of antibiotic was added to 45 ul of bacteria followed by 1 μl of test compound and mixed by pipetting and with an orbital shaker. The concentration of antibiotic used in the assay was 4 μg/ml, or optionally 1 μg/ml. Microplates were covered and incubated at 35° C. for 22 hours to 24 hours. At the end of the incubation, absorbance was determined using a spectrophotometer.

[2] = test system: Serratia marcescens expressing IMP-1 (CL5741); experiment: as above; type: cell-based
Procedure: as §1, §2, §3, §4

[3] = test system: Escherichia coli expressing NDM-1 (CLB30016); experiment: as above; type: cell-based
Procedure: as §1, §2, §3, §4

VIM-1 = VIM-1 (Pseudomonas aeruginosa (strain ATCC 15692 / DSM 22644 / CIP 104116 / JCM 14847 / LMG 12228 / 1C / PRS 101 / PAO1), UniProt A0A0F7KYQ8); experiment: Enzyme activity: determination of IC50, fluorescence assay with CCF2-FA substrate (VIM-1); type: biochemical
IMP-1 = IMP-1 (Serratia marcescens, UniProt P52699); experiment: biochemical; type: biochemical; settings: read-out: IMP-1 IC50
Chain of IMP-1 (P52699 whole entry, looked up): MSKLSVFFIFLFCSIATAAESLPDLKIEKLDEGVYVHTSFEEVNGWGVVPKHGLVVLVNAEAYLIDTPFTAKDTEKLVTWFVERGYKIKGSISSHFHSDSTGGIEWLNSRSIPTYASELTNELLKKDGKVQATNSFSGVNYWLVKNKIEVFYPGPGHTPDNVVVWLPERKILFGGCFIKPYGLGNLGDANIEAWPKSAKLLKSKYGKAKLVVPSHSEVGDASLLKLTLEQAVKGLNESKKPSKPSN

NDM-1 = NDM-1 (Klebsiella pneumoniae, UniProt C7C422); experiment: biochemical; type: biochemical; settings: read-out: NDM-1 IC50
Chain of NDM-1 (C7C422 whole entry, looked up, species assumed): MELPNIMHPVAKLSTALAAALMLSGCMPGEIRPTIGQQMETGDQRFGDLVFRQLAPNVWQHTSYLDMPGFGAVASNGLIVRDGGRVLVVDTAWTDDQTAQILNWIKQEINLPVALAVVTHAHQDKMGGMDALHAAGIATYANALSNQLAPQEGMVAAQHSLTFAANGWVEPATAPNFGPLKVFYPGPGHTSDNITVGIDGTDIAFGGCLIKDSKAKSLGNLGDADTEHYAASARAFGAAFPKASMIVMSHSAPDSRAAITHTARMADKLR

[4] = concentration giving 95% inhibition of bacterial growth
[5] = Klebsiella pneumoniae expressing VIM-1 (IHMA599644), 95% growth inhibition
[6] = Serratia marcescens expressing IMP-1 (CL5741), 95% growth inhibition
[7] = Escherichia coli expressing NDM-1 (CLB30016), 95% growth inhibition
[8] = VIM-1 enzyme, CCF2-FA fluorescence assay, read-out: VIM-1 IC50
[9] = Klebsiella pneumoniae IHMA599644 (VIM-1), 95% growth inhibition
[10] = Serratia marcescens CL5741 (IMP-1), 95% growth inhibition
[11] = (CLB30016, NDM-1), 95% growth inhibition
[12] = IMP-1 enzyme, CCF2-FA substrate
[13] = NDM-1 enzyme, CCF2-FA substrate
[14] = VIM-1 enzyme, CCF2-FA substrate, read-out: VIM-1 IC50
[15] = IHMA599644 (VIM-1), 95% inhibition of bacterial growth
[16] = CL5741 (IMP-1), 95% inhibition of bacterial growth
[17] = CLB30016 (NDM-1), 95% inhibition of bacterial growth
[18] = fluorescence assay with CCF2-FA substrate

SMILES | Klebsiella pneumoniae MITC95 [1, 9] | Serratia marcescens MITC95 [2, 10] | Escherichia coli MITC95 [3, 11] | IC50 (IMP-1; [12]) | IC50 (NDM-1; [13]) | also measured
CS(=O)(=O)NC1CCC(c2cccc(S(N)(=O)=O)c2-c2nn[nH]n2)CC1 (stereo not drawn) [Example 169, 3-(4-(methylsulfonamido)cyclohexyl)-2-(2H-tetrazol-5-yl)benzenesulfonamide] | – | – | – | – | – | Klebsiella pneumoniae expressing VIM-1 (IHMA 599644) MITC95 [1, 4]: 50 µM; Serratia marcescens expressing IMP-1 (CL5741) MITC95 [2, 4]: 3.125 µM; Escherichia coli expressing NDM-1 (CLB 30016) MITC95 [3, 4]: 2.344 µM; IC50 (VIM-1; VIM-1 IC50, fluorescence assay with CCF2-FA substrate): 57.6 nM
NCc1ccc(-c2ccc(Br)c(S(N)(=O)=O)c2-c2nn[nH]n2)cc1 [Example 271, 4′-(aminomethyl)-4-bromo-2-(2H-tetrazol-5-yl)-[1,1′-biphenyl]-3-sulfonamide] | – | – | – | – | – | Klebsiella pneumoniae MITC95 [1, 5]: 2.344 µM; Serratia marcescens MITC95 [2, 6]: 0.5859 µM; Escherichia coli MITC95 [3, 7]: 0.3906 µM; IC50 (VIM-1; [8]): 11.7 nM
NS(=O)(=O)c1c(CCC2CCNCC2)ccc(-c2ccnc3ccccc23)c1-c1nn[nH]n1 [Example 452, 6-(2-(piperidin-4-yl)ethyl)-3-(quinolin-4-yl)-2-(2H-tetrazol-5-yl)benzenesulfonamide] | – | – | – | – | – | Klebsiella pneumoniae MITC95 [1, 5]: 4.688 µM; Serratia marcescens MITC95 [2, 6]: 9.375 µM; Escherichia coli MITC95 [3, 7]: 1.563 µM; IC50 (VIM-1; [8]): 1.98 nM
NS(=O)(=O)c1c(C(F)(F)F)ccc(C2CCC2)c1-c1nnn[nH]1 [Example 492, 3-cyclobutyl-2-(1H-tetrazol-5-yl)-6-(trifluoromethyl)benzenesulfonamide] | 12.5 µM | 0.3906 µM | 3.125 µM | 16 nM | 17.3 nM | –
C[N+]1(C)CCc2c(cccc2-c2ccc(C(F)(F)F)c(S(N)(=O)=O)c2-c2nn[nH]n2)C1 [Example 520, 2,2-Dimethyl-5-(3-sulfamoyl-2-(2H-tetrazol-5-yl)-4-(trifluoromethyl)phenyl)-1,2,3,4-tetrahydroisoquinolin-2-ium] | 3.125 µM | 3.125 µM | 3.125 µM | – | – | IC50 (VIM-1; [14]): 1.96 nM
CC(C)(C)Cc1ccc(-c2cccc3sc(N)nc23)c(-c2nn[nH]n2)c1S(N)(=O)=O [Example 537, 3-(2-Aminobenzo[d]thiazol-4-yl)-6-neopentyl-2-(2H-tetrazol-5-yl)benzenesulfonamide] | >200 µM | 50 µM | 50 µM | – | – | IC50 (VIM-1; [14]): 66.7 nM
Nc1nc2c(-c3ccc(CCC4CCNCC4)c(S(N)(=O)=O)c3-c3nn[nH]n3)cccc2s1 [Example 540, 3-(2-Aminobenzo[d]thiazol-4-yl)-6-(2-(piperidin-4-yl)ethyl)-2-(2H-tetrazol-5-yl)benzenesulfonamide] | 12.5 µM | 6.25 µM | 1.563 µM | – | – | IC50 (VIM-1; [14]): 6.7 nM
Nc1nc2cncc(-c3ccc(C(F)(F)F)c(S(N)(=O)=O)c3-c3nnn[nH]3)c2[nH]1 [Example 571, 3-(2-amino-1H-imidazo[4,5-c]pyridin-7-yl)-2-(1H-tetrazol-5-yl)-6-(trifluoromethyl)benzenesulfonamide] | 6.25 µM | 3.125 µM | 0.7813 µM | 14.8 nM | 1.71 nM | –
NS(=O)(=O)c1c(CC2CCNCC2)ccc(-c2ccc(C3CCNC3)cc2)c1-c1nn[nH]n1 (stereo not drawn) [Example 588, 4-(piperidin-4-ylmethyl)-4′-(pyrrolidin-3-yl)-2-(2H-tetrazol-5-yl)-[1,1′-biphenyl]-3-sulfonamide] | 1.563 µM | 3.125 µM | 1.563 µM | 28.8 nM | 6.27 nM | –
NS(=O)(=O)c1cccc(-c2ccc(NC3CCNC3)nc2)c1-c1nnn[nH]1 (stereo not drawn) [Example 628, 3-[6-(pyrrolidin-3-ylamino)-3-pyridyl]-2-(1H-tetrazol-5-yl)benzenesulfonamide] | 12.5 µM | 12.5 µM | 0.9766 µM | 650 nM | 45 nM | –
NCCNc1ccc(-c2cccc(S(N)(=O)=O)c2-c2nnn[nH]2)cn1 [Example 634, 3-[6-(2-aminoethylamino)-3-pyridyl]-2-(1H-tetrazol-5-yl)benzenesulfonamide] | 6.25 µM | 18.75 µM | 0.5859 µM | 1280 nM | 14.1 nM | –
NS(=O)(=O)c1c(C(F)(F)F)ccc(N2CCN3C(=O)OCC3C2)c1-c1nnn[nH]1 (stereo not drawn) [Example 667, 3-(3-oxotetrahydro[1,3]oxazolo[3,4-a]pyrazin-7(1H)-yl)-2-(1H-tetrazol-5-yl)-6-(trifluoromethyl)benzenesulfonamide] | 9.375 µM | 2.344 µM | 3.125 µM | 75 nM | 19.7 nM | –
NS(=O)(=O)c1c(C(F)(F)F)ccc([C@H]2CC[C@H](NC3CC[C@H]4NCC[C@@H]34)CC2)c1-c1nnn[nH]1 (stereo partly drawn) [Example 692, 3-{4-[(3aR,6aR)-octahydrocyclopenta[b]pyrrol-4-ylamino]cyclohexyl}-2-(1H-tetrazol-5-yl)-6-(trifluoromethyl)benzene sulfonamide] | 6.25 µM | 3.125 µM | 1.563 µM | 19.8 nM | 6.36 nM | –
NC1CCN(C2CCN(c3ccc(C(F)(F)F)c(S(N)(=O)=O)c3-c3nnn[nH]3)CC2)C1 (stereo not drawn) [Example 768, 3-[4-(3-aminopyrrolidin-1-yl)piperidin-1-yl]-2-(1H-tetrazol-5-yl)-6-(trifluoromethyl) benzenesulfonamide] | – | – | – | – | – | Klebsiella pneumoniae MITC95 [1, 15]: 3.125 µM; Serratia marcescens MITC95 [2, 16]: 6.25 µM; Escherichia coli MITC95 [3, 17]: 12.5 µM; IC50 (IMP-1; [18]): 36.7 nM; IC50 (NDM-1; [18]): 24.6 nM
NC1CCCC1N1CCC(c2ccc(-c3ccc(C(F)(F)F)c(S(N)(=O)=O)c3-c3nnn[nH]3)cc2)CC1 (stereo not drawn) [Example 791, 4′-[1-(2-aminocyclopentyl)piperidin-4-yl]-2-(1H-tetrazol-5-yl)-4-(trifluoromethyl)biphenyl-3-sulfonamide] | – | – | – | – | – | Klebsiella pneumoniae MITC95 [1, 15]: 50 µM; Serratia marcescens MITC95 [2, 16]: 1.563 µM; Escherichia coli MITC95 [3, 17]: 0.7813 µM; IC50 (IMP-1; [18]): 1.2 nM; IC50 (NDM-1; [18]): 6.26 nM
NC1CCCC(N2CCC(c3ccc(-c4ccc(C(F)(F)F)c(S(N)(=O)=O)c4-c4nnn[nH]4)cc3)CC2)C1 (stereo not drawn) [Example 798, 4′-[1-(3-aminocyclohexyl)piperidin-4-yl]-2-(1H-tetrazol-5-yl)-4-(trifluoromethyl)biphenyl-3-sulfonamide] | – | – | – | – | – | Klebsiella pneumoniae MITC95 [1, 15]: 25 µM; Serratia marcescens MITC95 [2, 16]: 3.125 µM; Escherichia coli MITC95 [3, 17]: 1.563 µM; IC50 (IMP-1; [18]): 2.35 nM; IC50 (NDM-1; [18]): 6.05 nM
NS(=O)(=O)c1c(C(F)(F)F)ccc(-c2ccc(C3CN(CC4CCNCC4)C3)cc2)c1-c1nnn[nH]1 [Example 804, 4′-[1-(piperidin-4-ylmethyl)azetidin-3-yl]-2-(1H-tetrazol-5-yl)-4-(trifluoromethyl)biphenyl-3-sulfonamide] | – | – | – | – | – | Klebsiella pneumoniae MITC95 [1, 15]: 50 µM; Serratia marcescens MITC95 [2, 16]: 6.25 µM; Escherichia coli MITC95 [3, 17]: 3.125 µM; IC50 (IMP-1; [18]): 5.78 nM; IC50 (NDM-1; [18]): 3.85 nM
NC1CCC(N2CC(c3ccc(-c4ccc(C(F)(F)F)c(S(N)(=O)=O)c4-c4nnn[nH]4)cc3)C2)CC1 (stereo not drawn) [Example 809, 4′-[1-(4-aminocyclohexyl)azetidin-3-yl]-2-(1H-tetrazol-5-yl)-4-(trifluoromethyl)biphenyl-3-sulfonamide] | – | – | – | – | – | Klebsiella pneumoniae MITC95 [1, 15]: 50 µM; Serratia marcescens MITC95 [2, 16]: 6.25 µM; Escherichia coli MITC95 [3, 17]: 3.125 µM; IC50 (IMP-1; [18]): 11.3 nM; IC50 (NDM-1; [18]): 4.02 nM
